In publication doi:10.1101/2020.07.22.215434v1 (biorxiv, 2020):

How the values were obtained:
Assay in all cases: whole-cell patch clamp
Type in all cases: cell-based
hCav 3.2 [1] = target: T1, hCav 3.2 (Homo sapiens, UniProt O95180); conditions: read-out: % inhibition at 10 μM
hCav 3.2 [2] = target: T1, hCav 3.2; conditions: tonic block, step -100 to -30 mV, 5 mM Ba2+, pH 7.4, room temperature
hCav 3.1 = hCav 3.1 (Homo sapiens, UniProt O43497); conditions: tonic block, step -100 to -30 mV, 5 mM Ba2+, pH 7.4, room temperature
Chain of hCav 3.1 (O43497 whole entry): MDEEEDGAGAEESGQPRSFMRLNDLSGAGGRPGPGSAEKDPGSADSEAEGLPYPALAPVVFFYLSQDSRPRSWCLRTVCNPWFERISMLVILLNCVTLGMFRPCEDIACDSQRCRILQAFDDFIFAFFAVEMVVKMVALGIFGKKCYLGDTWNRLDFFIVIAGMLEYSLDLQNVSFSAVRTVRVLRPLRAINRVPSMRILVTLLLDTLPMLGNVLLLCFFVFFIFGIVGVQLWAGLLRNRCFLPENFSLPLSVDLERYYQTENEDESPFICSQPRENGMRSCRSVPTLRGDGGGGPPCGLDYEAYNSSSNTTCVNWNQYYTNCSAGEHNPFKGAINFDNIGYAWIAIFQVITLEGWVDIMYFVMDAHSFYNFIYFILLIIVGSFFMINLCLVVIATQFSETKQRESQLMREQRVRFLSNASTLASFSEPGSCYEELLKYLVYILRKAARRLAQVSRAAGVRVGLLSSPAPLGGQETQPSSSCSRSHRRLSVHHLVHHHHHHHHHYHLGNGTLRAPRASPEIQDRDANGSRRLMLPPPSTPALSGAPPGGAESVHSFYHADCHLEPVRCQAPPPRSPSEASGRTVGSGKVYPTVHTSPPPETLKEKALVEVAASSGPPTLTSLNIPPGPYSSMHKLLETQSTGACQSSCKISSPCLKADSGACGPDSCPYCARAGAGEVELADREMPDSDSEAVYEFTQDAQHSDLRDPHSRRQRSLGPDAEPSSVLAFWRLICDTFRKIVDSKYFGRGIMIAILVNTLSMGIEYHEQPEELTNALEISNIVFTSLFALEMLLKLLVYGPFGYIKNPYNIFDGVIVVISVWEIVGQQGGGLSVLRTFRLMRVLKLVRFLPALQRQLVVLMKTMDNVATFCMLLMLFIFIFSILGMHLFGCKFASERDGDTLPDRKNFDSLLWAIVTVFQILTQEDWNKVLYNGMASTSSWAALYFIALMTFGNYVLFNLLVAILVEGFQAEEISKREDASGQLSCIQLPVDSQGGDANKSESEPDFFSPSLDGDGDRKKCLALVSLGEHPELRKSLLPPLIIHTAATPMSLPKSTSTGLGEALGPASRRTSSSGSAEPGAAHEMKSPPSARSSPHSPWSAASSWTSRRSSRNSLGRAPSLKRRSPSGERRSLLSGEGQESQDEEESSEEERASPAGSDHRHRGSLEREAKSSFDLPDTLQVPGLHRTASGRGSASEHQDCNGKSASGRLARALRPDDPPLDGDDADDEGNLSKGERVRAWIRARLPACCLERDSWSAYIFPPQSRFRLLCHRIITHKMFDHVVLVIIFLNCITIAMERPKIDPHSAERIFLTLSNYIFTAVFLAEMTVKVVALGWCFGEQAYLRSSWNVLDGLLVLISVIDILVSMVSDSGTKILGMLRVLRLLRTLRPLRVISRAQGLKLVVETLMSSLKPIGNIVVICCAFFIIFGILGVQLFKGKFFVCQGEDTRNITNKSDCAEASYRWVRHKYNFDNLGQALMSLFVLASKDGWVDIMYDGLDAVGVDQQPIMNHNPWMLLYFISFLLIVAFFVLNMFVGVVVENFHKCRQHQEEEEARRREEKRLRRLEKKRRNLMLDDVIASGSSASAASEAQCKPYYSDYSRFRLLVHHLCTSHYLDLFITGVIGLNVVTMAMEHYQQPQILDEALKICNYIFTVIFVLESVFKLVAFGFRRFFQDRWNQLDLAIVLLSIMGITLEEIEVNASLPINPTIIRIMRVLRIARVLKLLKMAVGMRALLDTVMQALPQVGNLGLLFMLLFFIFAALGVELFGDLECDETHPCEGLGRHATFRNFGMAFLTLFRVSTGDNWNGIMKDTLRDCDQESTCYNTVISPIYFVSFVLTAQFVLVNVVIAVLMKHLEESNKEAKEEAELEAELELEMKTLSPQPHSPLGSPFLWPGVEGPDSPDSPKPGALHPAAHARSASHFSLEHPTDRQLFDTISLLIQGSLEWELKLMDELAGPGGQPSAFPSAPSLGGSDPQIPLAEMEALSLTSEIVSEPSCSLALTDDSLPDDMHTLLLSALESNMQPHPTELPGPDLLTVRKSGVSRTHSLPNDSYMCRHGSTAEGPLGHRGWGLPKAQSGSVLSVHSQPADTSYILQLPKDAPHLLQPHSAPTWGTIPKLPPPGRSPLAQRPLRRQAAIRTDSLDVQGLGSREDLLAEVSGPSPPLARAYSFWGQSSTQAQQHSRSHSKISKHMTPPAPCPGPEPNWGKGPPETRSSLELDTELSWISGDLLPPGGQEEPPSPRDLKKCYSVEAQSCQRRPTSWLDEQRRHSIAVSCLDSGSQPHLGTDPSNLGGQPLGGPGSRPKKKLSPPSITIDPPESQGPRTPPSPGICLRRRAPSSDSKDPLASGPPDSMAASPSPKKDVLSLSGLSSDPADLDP

T1 sequence (O95180 whole entry): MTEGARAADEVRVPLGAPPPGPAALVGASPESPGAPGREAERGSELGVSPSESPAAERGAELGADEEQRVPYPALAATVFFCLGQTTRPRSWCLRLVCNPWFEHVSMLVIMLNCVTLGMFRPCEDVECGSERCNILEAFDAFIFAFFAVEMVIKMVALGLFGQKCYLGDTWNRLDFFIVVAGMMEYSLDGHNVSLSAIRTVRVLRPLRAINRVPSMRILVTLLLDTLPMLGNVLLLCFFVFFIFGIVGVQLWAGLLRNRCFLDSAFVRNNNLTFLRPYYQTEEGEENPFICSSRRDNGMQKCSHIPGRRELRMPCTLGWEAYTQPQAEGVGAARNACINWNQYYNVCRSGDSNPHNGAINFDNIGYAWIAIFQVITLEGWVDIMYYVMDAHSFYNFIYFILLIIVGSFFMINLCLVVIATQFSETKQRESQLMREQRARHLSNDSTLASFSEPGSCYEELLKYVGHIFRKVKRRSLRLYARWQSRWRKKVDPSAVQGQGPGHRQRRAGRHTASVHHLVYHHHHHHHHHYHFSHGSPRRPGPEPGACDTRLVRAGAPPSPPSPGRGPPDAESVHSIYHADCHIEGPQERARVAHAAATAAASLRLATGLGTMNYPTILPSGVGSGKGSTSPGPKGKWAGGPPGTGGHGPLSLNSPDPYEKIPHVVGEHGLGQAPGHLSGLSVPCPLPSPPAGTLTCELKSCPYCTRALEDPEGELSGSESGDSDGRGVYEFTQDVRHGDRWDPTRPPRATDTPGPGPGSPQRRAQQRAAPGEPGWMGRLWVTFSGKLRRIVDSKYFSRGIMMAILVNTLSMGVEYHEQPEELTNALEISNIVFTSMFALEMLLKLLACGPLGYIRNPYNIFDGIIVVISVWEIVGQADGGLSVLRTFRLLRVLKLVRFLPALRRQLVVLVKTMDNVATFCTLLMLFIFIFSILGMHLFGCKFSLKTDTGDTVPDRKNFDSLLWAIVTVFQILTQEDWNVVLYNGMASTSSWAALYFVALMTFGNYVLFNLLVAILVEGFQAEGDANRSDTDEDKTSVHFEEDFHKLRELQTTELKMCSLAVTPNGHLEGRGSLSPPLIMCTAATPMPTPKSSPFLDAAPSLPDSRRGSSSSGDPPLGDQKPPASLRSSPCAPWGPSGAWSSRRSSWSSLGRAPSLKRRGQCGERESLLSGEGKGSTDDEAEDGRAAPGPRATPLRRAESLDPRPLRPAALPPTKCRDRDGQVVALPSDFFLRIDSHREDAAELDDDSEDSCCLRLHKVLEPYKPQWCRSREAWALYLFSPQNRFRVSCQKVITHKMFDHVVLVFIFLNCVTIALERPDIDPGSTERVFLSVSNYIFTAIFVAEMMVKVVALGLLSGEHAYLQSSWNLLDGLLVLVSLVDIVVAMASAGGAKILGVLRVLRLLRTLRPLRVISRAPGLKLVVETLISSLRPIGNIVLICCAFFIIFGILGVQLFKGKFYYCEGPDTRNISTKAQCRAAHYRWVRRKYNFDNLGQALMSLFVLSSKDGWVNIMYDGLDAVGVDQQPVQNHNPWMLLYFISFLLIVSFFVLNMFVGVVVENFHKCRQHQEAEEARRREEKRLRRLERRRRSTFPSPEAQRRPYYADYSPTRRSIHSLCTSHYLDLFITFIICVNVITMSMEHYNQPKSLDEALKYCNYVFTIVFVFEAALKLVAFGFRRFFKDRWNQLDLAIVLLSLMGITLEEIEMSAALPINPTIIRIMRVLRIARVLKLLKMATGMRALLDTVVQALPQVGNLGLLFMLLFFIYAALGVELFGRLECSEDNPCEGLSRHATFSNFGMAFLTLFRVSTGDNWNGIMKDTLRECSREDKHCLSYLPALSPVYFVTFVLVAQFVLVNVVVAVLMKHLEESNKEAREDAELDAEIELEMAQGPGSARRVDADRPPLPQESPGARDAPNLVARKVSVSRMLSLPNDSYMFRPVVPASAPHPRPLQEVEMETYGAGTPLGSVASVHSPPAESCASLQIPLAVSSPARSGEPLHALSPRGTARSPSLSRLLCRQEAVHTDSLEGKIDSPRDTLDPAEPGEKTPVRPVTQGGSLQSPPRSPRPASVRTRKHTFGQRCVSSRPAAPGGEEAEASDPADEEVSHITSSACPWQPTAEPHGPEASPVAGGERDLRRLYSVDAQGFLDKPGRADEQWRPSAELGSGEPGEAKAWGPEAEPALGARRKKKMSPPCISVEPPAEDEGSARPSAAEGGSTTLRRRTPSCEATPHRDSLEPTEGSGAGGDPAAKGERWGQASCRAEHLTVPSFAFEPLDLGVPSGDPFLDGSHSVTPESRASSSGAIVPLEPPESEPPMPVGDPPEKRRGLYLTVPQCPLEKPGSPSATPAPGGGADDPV

Row | Compound | inhibition at 10 µM (hCav 3.2 [1]) [%] | IC50 (hCav 3.2 [2]) [µM] | also measured
1 | CCCCCc1cc(O)c2c(c1)OC(C)(C)[C@@H]1CCC(C)=C[C@@H]21 [Δ9-THC] | 43 ± 2.4 |  | 
2 | COC(=O)C(NC(=O)c1nn(CC2CCCCC2)c2ccccc12)C(C)C (centres unmarked) [AMB-CHMINACA, methyl 2-((1-(cyclohexylmethyl)-1H-indazole-3-carbonyl)amino)-3-methylbutanoate] |  | 0.74 ± 0.3 | 
3 | COC(=O)[C@@H](NC(=O)c1nn(CC2CCCCC2)c2ccccc12)C(C)(C)C [MDMB-CHMINACA] |  |  | % inhibition at 10 μM (hCav 3.1): > 80%
4 | C=C(C)[C@@H]1CCC(C)=C[C@H]1c1c(O)cc(CCCCC)cc1O [CBD] | 57 ± 5 |  | 
5 | COC(=O)C(NC(=O)c1cn(CC2CCCCC2)c2ccccc12)C(C)(C)C (centres unmarked) [MDMB-CHMICA, methyl-2-[[1-(cyclohexylmethyl)indole-3-carbonyl]amino]-3,3-dimethylbutanoate] |  | 1.5 ± 0.2 | 
